Results as given in patent publication US11441131B2, “Heparosan synthases and use thereof for saccharide synthesis” (The Regents of the University of California, priority 2019, dated 2022).
Read-outs that look alike come from different tables or passages of the source.

B1: D222N (protein)
chain: MGSSHHHHHHSFEKIYTYNQALEAKLEKDKQTTSITDLYNEVAKSDLGLVKETNSANPLVSIIMTSHNTAQFIEASINSLLLQTYKNIEIIIVDDDSSDNTFEIASRIANTTSKVRVFRLNSNLGTYFAKNTGILKSKGDIIFFQDSDDVCHHERIERCVNILLANKETIAVRCAYSRLAPETQHIIKVNNMDYRLGFITLGMHRKVFQEIGFFNCTTKGSNDEFFHRIAKYYGKEKIKNLLLPLYYNTMRENSLFTDMVEWIDNHNIIQKMSDTRQHYATLFQAMHNETASHDFKNLFQFPRIYDALPVPQEMSKLSNPKIPVYINICSIPSRIAQLQRIIGILKNQCDHFHIYLDGYVEIPDFIKNLGNKATVVHCKDKDNSIRDNGKFILLEELIEKNQDGYYITCDDDIIYPSDYINTMIKKLNEYDDKAVIGLHGILFPSRMTKYFSADRLVYSFYKPLEKDKAVNVLGTGTVSFRVSLFNQFSLSDFTHSGMADIYFSLLCKKNNILQICISRPANWLTEDNRDSETLYHQYRDNDEQQTQLIMENGPWGYSSIYPLVKNHPKFTDLIPCLPFYFL
B2: L196A (protein)
chain: MGSSHHHHHHSFEKIYTYNQALEAKLEKDKQTTSITDLYNEVAKSDLGLVKETNSANPLVSIIMTSHNTAQFIEASINSLLLQTYKNIEIIIVDDDSSDNTFEIASRIANTTSKVRVFRLNSNLGTYFAKNTGILKSKGDIIFFQDSDDVCHHERIERCVNILLANKETIAVRCAYSRLAPETQHIIKVNNMDYRAGFITLGMHRKVFQEIGFFNCTTKGSDDEFFHRIAKYYGKEKIKNLLLPLYYNTMRENSLFTDMVEWIDNHNIIQKMSDTRQHYATLFQAMHNETASHDFKNLFQFPRIYDALPVPQEMSKLSNPKIPVYINICSIPSRIAQLQRIIGILKNQCDHFHIYLDGYVEIPDFIKNLGNKATVVHCKDKDNSIRDNGKFILLEELIEKNQDGYYITCDDDIIYPSDYINTMIKKLNEYDDKAVIGLHGILFPSRMTKYFSADRLVYSFYKPLEKDKAVNVLGTGTVSFRVSLFNQFSLSDFTHSGMADIYFSLLCKKNNILQICISRPANWLTEDNRDSETLYHQYRDNDEQQTQLIMENGPWGYSSIYPLVKNHPKFTDLIPCLPFYFL
B3: T200A (protein)
chain: MGSSHHHHHHSFEKIYTYNQALEAKLEKDKQTTSITDLYNEVAKSDLGLVKETNSANPLVSIIMTSHNTAQFIEASINSLLLQTYKNIEIIIVDDDSSDNTFEIASRIANTTSKVRVFRLNSNLGTYFAKNTGILKSKGDIIFFQDSDDVCHHERIERCVNILLANKETIAVRCAYSRLAPETQHIIKVNNMDYRLGFIALGMHRKVFQEIGFFNCTTKGSDDEFFHRIAKYYGKEKIKNLLLPLYYNTMRENSLFTDMVEWIDNHNIIQKMSDTRQHYATLFQAMHNETASHDFKNLFQFPRIYDALPVPQEMSKLSNPKIPVYINICSIPSRIAQLQRIIGILKNQCDHFHIYLDGYVEIPDFIKNLGNKATVVHCKDKDNSIRDNGKFILLEELIEKNQDGYYITCDDDIIYPSDYINTMIKKLNEYDDKAVIGLHGILFPSRMTKYFSADRLVYSFYKPLEKDKAVNVLGTGTVSFRVSLFNQFSLSDFTHSGMADIYFSLLCKKNNILQICISRPANWLTEDNRDSETLYHQYRDNDEQQTQLIMENGPWGYSSIYPLVKNHPKFTDLIPCLPFYFL
B4: R195A (protein)
chain: MGSSHHHHHHSFEKIYTYNQALEAKLEKDKQTTSITDLYNEVAKSDLGLVKETNSANPLVSIIMTSHNTAQFIEASINSLLLQTYKNIEIIIVDDDSSDNTFEIASRIANTTSKVRVFRLNSNLGTYFAKNTGILKSKGDIIFFQDSDDVCHHERIERCVNILLANKETIAVRCAYSRLAPETQHIIKVNNMDYALGFITLGMHRKVFQEIGFFNCTTKGSDDEFFHRIAKYYGKEKIKNLLLPLYYNTMRENSLFTDMVEWIDNHNIIQKMSDTRQHYATLFQAMHNETASHDFKNLFQFPRIYDALPVPQEMSKLSNPKIPVYINICSIPSRIAQLQRIIGILKNQCDHFHIYLDGYVEIPDFIKNLGNKATVVHCKDKDNSIRDNGKFILLEELIEKNQDGYYITCDDDIIYPSDYINTMIKKLNEYDDKAVIGLHGILFPSRMTKYFSADRLVYSFYKPLEKDKAVNVLGTGTVSFRVSLFNQFSLSDFTHSGMADIYFSLLCKKNNILQICISRPANWLTEDNRDSETLYHQYRDNDEQQTQLIMENGPWGYSSIYPLVKNHPKFTDLIPCLPFYFL
B5: Y176A (protein)
chain: MGSSHHHHHHSFEKIYTYNQALEAKLEKDKQTTSITDLYNEVAKSDLGLVKETNSANPLVSIIMTSHNTAQFIEASINSLLLQTYKNIEIIIVDDDSSDNTFEIASRIANTTSKVRVFRLNSNLGTYFAKNTGILKSKGDIIFFQDSDDVCHHERIERCVNILLANKETIAVRCAASRLAPETQHIIKVNNMDYRLGFITLGMHRKVFQEIGFFNCTTKGSDDEFFHRIAKYYGKEKIKNLLLPLYYNTMRENSLFTDMVEWIDNHNIIQKMSDTRQHYATLFQAMHNETASHDFKNLFQFPRIYDALPVPQEMSKLSNPKIPVYINICSIPSRIAQLQRIIGILKNQCDHFHIYLDGYVEIPDFIKNLGNKATVVHCKDKDNSIRDNGKFILLEELIEKNQDGYYITCDDDIIYPSDYINTMIKKLNEYDDKAVIGLHGILFPSRMTKYFSADRLVYSFYKPLEKDKAVNVLGTGTVSFRVSLFNQFSLSDFTHSGMADIYFSLLCKKNNILQICISRPANWLTEDNRDSETLYHQYRDNDEQQTQLIMENGPWGYSSIYPLVKNHPKFTDLIPCLPFYFL
B6: I199A (protein)
chain: MGSSHHHHHHSFEKIYTYNQALEAKLEKDKQTTSITDLYNEVAKSDLGLVKETNSANPLVSIIMTSHNTAQFIEASINSLLLQTYKNIEIIIVDDDSSDNTFEIASRIANTTSKVRVFRLNSNLGTYFAKNTGILKSKGDIIFFQDSDDVCHHERIERCVNILLANKETIAVRCAYSRLAPETQHIIKVNNMDYRLGFATLGMHRKVFQEIGFFNCTTKGSDDEFFHRIAKYYGKEKIKNLLLPLYYNTMRENSLFTDMVEWIDNHNIIQKMSDTRQHYATLFQAMHNETASHDFKNLFQFPRIYDALPVPQEMSKLSNPKIPVYINICSIPSRIAQLQRIIGILKNQCDHFHIYLDGYVEIPDFIKNLGNKATVVHCKDKDNSIRDNGKFILLEELIEKNQDGYYITCDDDIIYPSDYINTMIKKLNEYDDKAVIGLHGILFPSRMTKYFSADRLVYSFYKPLEKDKAVNVLGTGTVSFRVSLFNQFSLSDFTHSGMADIYFSLLCKKNNILQICISRPANWLTEDNRDSETLYHQYRDNDEQQTQLIMENGPWGYSSIYPLVKNHPKFTDLIPCLPFYFL

Columns and labels:
[1] = test system: His6-PmHS2; experiment: Donor substrate specificity of GlcNAcT activity (HPLC), His6-PmHS2; format: biochemical, Pasteurella multocida; conditions: acceptor GlcAβ2AA
Description: (§1) Donor substrate specificity assays. […] Chromatographic separation and detection were achieved similarly to that described above for kinetics studies.

[2] = test system: His6-Δ80PmHS2; experiment: Donor substrate specificity of GlcNAcT activity (HPLC), His6-Δ80PmHS2; format: biochemical, Pasteurella multocida; conditions: acceptor GlcAβ2AA
Description: as §1

[3] = α1-4-GlcNAcT activity comparison of His6-Δ80PmHS2 and its D222N and D500N mutants; format: biochemical
Experimental: Reactions were stopped by heating reaction mixture at 70° C. for 10 min, followed by incubation on ice for 30 min and centrifugation at 11,337 g for 15 min. Supernatants were analyzed similarly to that described above for […].

[4] = β1-4-GlcAT activity comparison of His6-Δ80PmHS2 and its D222N and D500N mutants; format: biochemical
Experimental: Reactions were stopped by heating reaction mixtures at 70° C. for 10 min, followed by incubation on ice for 30 min and centrifugation at 11,337 g for 15 min. Supernatants were analyzed similarly to that described above for the coupled-enzyme reverse glycosylation assay.

[5] = Reverse glycosylation assay mimicking synthetic conditions; format: biochemical; conditions: 30 mM UDP, conditions mimicking synthetic reactions
Experimental: Reactions were stopped by heating reaction mixtures at 70° C. for 10 min, followed by incubation on ice for 30 min and centrifugation at 11,337 g for 15 min. Supernatants were analyzed similarly to that described above for time-course reverse glycosylation assays.

[6] = Protein expression and purification; design: species or system E. coli BL21 (DE3); conditions: per L culture
Experimental: Protein expression and purification. The plasmid-bearing E. coli BL21(DE3) cells were cultured in 1 L of LB-rich media (10 g/L tryptone, 5 g/L yeast extract and 10 g/L NaCl) supplemented with ampicillin (100 μg/mL). Expression of the target protein was achieved by inducing the E. coli culture with 0.1 mM of isopropyl-1-thio-β-D-galactopyranoside (IPTG) when OD600 nm reached 0.8-1.0, followed by incubating at 20° C. for 20 h with shaking at 250 rpm in a C25KC incubator shaker (New Brunswick Scientific, Edison, N.J.). Histidine-tagged target proteins were purified from cell lysate. To obtain the cell lysate, cell pellet harvested by centrifugation at 2,795 g for 50 min was resuspended (25 mL/L cell culture) in lysis buffer (Tris-HCl, 100 mM, pH 8.0 with 0.1% Triton X-100). Sonication protocol was 2 s (sonication)/3 s (rest) for a total of 6 min on ice. Lysed cells were centrifuged at 5,000 g for 50 min and the supernatant (lysate) was collected. Purification of histidine-tagged proteins from the lysate was achieved using a Ni′-resin column. The column was pre-equilibrated with 10 column volumes of binding buffer (5 mM imidazole, 0.5 M NaCl, 50 mM Tris-HCl, pH 7.5). The lysate was then loaded, and the column was washed with 10 column volumes of binding buffer and 10 column volumes of washing buffer (16 mM imidazole, 0.5 M NaCl, 50 mM Tris-HCl, pH 7.5). The target protein was eluted with Tris-HCl buffer (50 mM, pH 7.5) containing imidazole (200 mM) and NaCl (0.5 M). The fractions containing the purified enzymes were collected, and stored at 4° C.

[7] = β1-4GlcA-transferase activity of designed mutants; format: biochemical

Molecule | suitability as donor substrate [1] | suitability as donor substrate [2] | β1-4GlcA-transferase activity [7] | further results
[N-]=[N+]=NCC(=O)N[C@H]1[C@@H](OP(=O)(O)OP(=O)(O)OC[C@H]2O[C@@H](n3ccc(=O)[nH]c3=O)[C@H](O)[C@@H]2O)O[C@H](CO)[C@@H](O)[C@@H]1O [UDP-GlcNAz] | suitable donor substrates | suitable donor substrates | – | –
CC(=O)NC1C(OP(=O)(O)OP(=O)(O)OCC2OC(n3ccc(=O)[nH]c3=O)C(O)C2O)OC(COS(=O)(=O)O)C(O)C1O (stereo not drawn) [UDP-GlcNAc6S] | not suitable donor substrates | not suitable donor substrates | – | –
CC(=O)NC1C(OP(=O)(O)OP(=O)(O)OCC2OC(n3ccc(=O)[nH]c3=O)C(O)C2O)OC(CN=[N+]=[N-])C(O)C1O (stereo not drawn) [UDP-GlcNAc6N3] | suitable donor substrates | suitable donor substrates | – | –
O=c1ccn([C@@H]2O[C@H](COP(=O)(O)OP(=O)(O)O[C@H]3O[C@H](CO)[C@@H](O)[C@H](O)[C@H]3NS(=O)(=O)O)[C@@H](O)[C@H]2O)c(=O)[nH]1 [UDP-GlcNS] | not suitable donor substrates | not suitable donor substrates | – | –
O=C(N[C@H]1[C@@H](OP(=O)(O)OP(=O)(O)OC[C@H]2O[C@@H](n3ccc(=O)[nH]c3=O)[C@H](O)[C@@H]2O)O[C@H](CO)[C@@H](O)[C@@H]1O)C(F)(F)F [UDP-GlcNTFA] | suitable donor substrates | suitable donor substrates | – | –
[N-]=[N+]=NC1C(OP(=O)(O)OP(=O)(O)OCC2OC(n3ccc(=O)[nH]c3=O)C(O)C2O)OC(CO)C(O)C1O (stereo not drawn) [UDP-GlcN3] | not suitable donor substrates | not suitable donor substrates | – | –
UDP-GlcNAc6NAcPh | not suitable donor substrates | not suitable donor substrates | – | –
B1 | – | – | – | α1-4-GlcNAcT activity relative to His6-Δ80PmHS2 [3]: retained; β1-4-GlcAT activity relative to His6-Δ80PmHS2 [4]: lost; β1-4-GlcAT activity relative to His6-Δ80PmHS2 ([4]; listed as D291N): completely removed; reverse glycosylation oligosaccharide products [5]: no reverse glycosylation oligosaccharide products were observed; expression level [6]: 50 to 60 mg/L
B2 | – | – | retained | –
B3 | – | – | retained | –
B4 | – | – | retained | –
B5 | – | – | retained | –
B6 | – | – | retained | –
